Measurements: patent publication US20240099951A1, “HAIR GROWTH STIMULANT” (ADJUVANT HOLDINGS CO., LTD., priority 2020, published 2024)

Experiments:
[1] = test system: skin samples derived from C57BL/6N mouse dorsal body hair skin grafted onto Balb/c nu/nu mice; experiment: Evaluation of hair growth activity: drug applied on skin samples transplanted in mice; assay type: in vivo
Description: C57BL/6N mice (male) and Balb/c nu/nu mice (female) were purchased from Japan SLC, Inc. (Japan) and bred, and were thereafter made available for the following testing. Note that the testing and breeding of animals complied with pertinent laws, regulations, ordinances, and guidelines, and was performed with the approval of the Experimental Ethics Review Board of the Institute of Physical and Chemical Research. The following reagents were respectively prepared. • Comparative Example 1: 60% aqueous ethanol solution • Comparative Example 2: 5% minoxidil solution • Comparative Example 3: 3% minoxidil solution • Comparative Example 4: 1% minoxidil solution • Working Example 1: 3% phytosphingosine solution • Working Example 2: 1% phytosphingosine solution To collect dorsal body hair skin in the form of anagen stage VI skin 12 to 14 days following depilation, C57BL/6N mice of age 7 to 8 weeks were depilated at locations where dorsal body hair skin was intended to be collected, and were bred for 12 to 14 days. The depilated C57BL/6N mice were thereafter euthanized by cervical dislocation, following which a suitable amount of dorsal body hair skin was collected from the locations at which dorsal body hair skin was intended to be collected. The collected skin was immersed in DMEM culture medium (hereinafter “DMEM 10”) which contained 10 mM HEPES, 10% fetal bovine serum, and 1% penicillin/streptomycin solution. The collected dorsal body hair skin was grasped with bent-nose curved tweezers and was treated by immersion for 10 seconds in a sterilizing solution. Sterilization treatment was performed by carrying out treatment with 7% povidone iodine solution two times, treatment with PBS (−) three times, and treatment with DMEM 10 two times, in this order, with fresh solutions respectively being used each time. Following sterilization treatment, these were immersed in clean DMEM 10. Following sterilization treatment, the dorsal body hair skin was cut into pieces and formed into blocks. The transparent connective tissue which adhered to the cutaneous muscle layer of the skin was excised therefrom using curved scissors, and hair groups were cut into rectangular strips in parallel fashion with respect to the direction of the wave of the hair. At this time, these were cut into blocks such that there were 6 rows of hair follicles along the long axis, adjustment having been carried out so that there were 5 rows of hair follicles along the short axis. The skin samples derived from dorsal body hair skin that were prepared in accordance with the foregoing were grafted onto Balb/c nu/nu mice of age 4 to 6 weeks. More specifically, mice were anesthetized in the usual way using isoflurane gas. The dorsal area of the mice was then disinfected using 7% povidone iodine solution, following which the mice were made to assume a naturally recumbent posture. In addition, a Mani ophthalmic knife (Mani, Inc.; Japan) was used to pierce the skin at the dorsal area of the mice, the grafts which were formed extending from the epidermal layer of the skin to the subdermal layer. The skin samples derived from dorsal body hair skin were inserted into the grafts formed thereat in such fashion as to cause the hair groups to be directed toward the body surface side of the grafts. Skin sample transplanted depth was adjusted so as to cause the top portion of the hair group to be in a state such that it was exposed at the top portion of the graft. To protect the grafts, Nurseban (registered trademark) (Sunplanet Co., Ltd.; Japan) and surgical tape (3M Japan Limited; Japan) were then used as protective tape to cover the grafts at which the skin samples derived from dorsal body hair skin had been transplanted. The protective tape was removed 5 to 7 days following transplantation, and survival of the transplanted skin samples derived from dorsal body hair skin was determined by visual inspection or digital microscopy (Keyence Corporation; Japan), after which follow-up observation was carried out. […]

[2] = test system: hair groups derived from C57BL/6N dorsal body hair skin transplanted in Balb/c nu/nu mice; experiment: Evaluation of hair-diameter-increasing activity (hair shafts grown after third cycle of Exemplary Test 1); assay type: in vivo
Description: Dorsal body hair skin was collected from C57BL/6N mice (SLC) of age 7 to 8 weeks in accordance with a procedure similar to that at Exemplary Test 1, above, the drug being applied after the hair groups derived from the dorsal body hair skin that had been fabricated were transplanted in Balb/c nu/nu mice (SLC) of age 4 to 6 weeks. Testing and breeding of animals complied with pertinent laws, regulations, ordinances, and guidelines, and was performed with the approval of the Experimental Ethics Review Board of the Institute of Physical and Chemical Research. The following three solutions were used during testing. • 60% aqueous ethanol solution • 5% minoxidil solution • 1% phytosphingosine solution Measurement of increase in hair diameter was carried out using hair shafts which had grown following completion of the third cycle at Exemplary Test 1. Of the hair shafts that were collected, two zigzag hairs were used. Three locations were selected in regions where diameter was large in the central portions thereof using a square 100 μm on a side. Measurement of selected regions was carried out at five locations. Hairs as they existed following application of the drug were used for measurement of hair shaft diameter.

[3] = 1% minoxidil solution (Comparative Example 4), second hair cycle
[4] = 1% minoxidil solution (Comparative Example 4), third hair cycle
[5] = 1% minoxidil solution, second hair cycle vs first hair cycle
[6] = 1% minoxidil solution, third hair cycle vs first hair cycle
[7] = 3% minoxidil solution (Comparative Example 3), second hair cycle
[8] = 3% minoxidil solution (Comparative Example 3), third hair cycle
[9] = 3% minoxidil solution, second hair cycle vs first hair cycle
[10] = 3% minoxidil solution, third hair cycle vs first hair cycle
[11] = 5% minoxidil solution (Comparative Example 2), second hair cycle
[12] = 5% minoxidil solution (Comparative Example 2), third hair cycle
[13] = 5% minoxidil solution, second hair cycle vs first hair cycle
[14] = 5% minoxidil solution, third hair cycle vs first hair cycle

SMILES: Nc1cc(N2CCCCC2)nc(N)[n+]1[O-] [minoxidil]
- Hair shaft elongation rate [1, 3]: 0.54 ± 0.08 mm/day
- Maximum hair shaft length [1, 3]: 5.2 ± 0.3 mm
- Hair shaft elongation rate [1, 4]: 0.44 ± 0.02 mm/day
- Maximum hair shaft length [1, 4]: 4.9 ± 0.4 mm
- Hair shaft elongation rate, percent change relative to reference data [1, 5]: 123.85%
- Maximum hair shaft length, percent change relative to reference data [1, 5]: 118.07%
- Hair shaft elongation rate, percent change relative to reference data [1, 6]: 100.24%
- Maximum hair shaft length, percent change relative to reference data [1, 6]: 111.10%
- Hair shaft elongation rate [1, 7]: 0.48 ± 0.07 mm/day
- Maximum hair shaft length [1, 7]: 5.2 ± 0.2 mm
- Hair shaft elongation rate [1, 8]: 0.53 ± 0.03 mm/day
- Maximum hair shaft length [1, 8]: 5.3 ± 0.3 mm
- Hair shaft elongation rate, percent change relative to reference data [1, 9]: 126.50%
- Maximum hair shaft length, percent change relative to reference data [1, 9]: 116.80%
- Hair shaft elongation rate, percent change relative to reference data [1, 10]: 139.36%
- Maximum hair shaft length, percent change relative to reference data [1, 10]: 120.09%
- Hair shaft elongation rate [1, 11]: 0.51 ± 0.03 mm/day
- Maximum hair shaft length [1, 11]: 6.0 ± 0.1 mm
- Hair shaft elongation rate [1, 12]: 0.55 ± 0.07 mm/day
- Maximum hair shaft length [1, 12]: 5.8 ± 0.1 mm
- Hair shaft elongation rate, percent change relative to reference data [1, 13]: 116.25%
- Maximum hair shaft length, percent change relative to reference data [1, 13]: 115.74%
- Hair shaft elongation rate, percent change relative to reference data [1, 14]: 126.11%
- Maximum hair shaft length, percent change relative to reference data [1, 14]: 112.62%
- Hair shaft diameter ([2]; 5% minoxidil solution applied, hair shafts after third cycle): 18.28 μm
- hair shaft diameter as percent of control ([2]; 5% minoxidil solution vs 60% aqueous ethanol solution): 115%
